Where “and” joins values, the source holds several entries; their conditions need not be identical. Identical values can stand only once.
Legend:
PfCRT variant E207L = molecular target: T1, PfCRT variant E207L (Plasmodium falciparum, UniProt Q9N623, A220S/E207L/I356T/K76T/M74I/N326S/N75E/Q271E/R371I); assay: CQ uptake assay, oocytes expressing E207L; format: cell-based
T1 construct: expressed in transfected cells; host or cells: Xenopus laevis oocytes injected with in vitro transcribed RNA (pSP64T)
T1 sequence (Q9N623 1-424 M74I/N75E/K76T/E207L/A220S/Q271E/N326S/I356T/R371I): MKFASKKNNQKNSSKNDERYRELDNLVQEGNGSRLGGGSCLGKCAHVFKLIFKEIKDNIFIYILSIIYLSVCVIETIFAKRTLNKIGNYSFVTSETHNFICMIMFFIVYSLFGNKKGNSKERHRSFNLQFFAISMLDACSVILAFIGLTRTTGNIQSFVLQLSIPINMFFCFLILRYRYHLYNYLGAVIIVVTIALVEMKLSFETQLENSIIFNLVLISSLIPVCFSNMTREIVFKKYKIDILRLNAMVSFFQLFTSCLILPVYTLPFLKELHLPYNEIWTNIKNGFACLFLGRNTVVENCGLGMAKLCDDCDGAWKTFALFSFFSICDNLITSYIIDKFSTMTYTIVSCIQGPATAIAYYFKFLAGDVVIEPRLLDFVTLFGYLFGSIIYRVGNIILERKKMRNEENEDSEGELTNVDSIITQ
Protocol: (§1) Site-directed mutagenesis of PfCRT^Dd2 was performed as described using the megaprimer method with overlap extension[21],[54]. The primer pairs used are listed in Supplementary Table 6. Please note that a codon-optimized and oocyte-adapted version of PfCRT^Dd2 was used[22] (Supplementary Fig. 16). The resulting DNA fragment was cloned into the SP64T expression vector and verified by sequencing.
(§2) Oocytes were obtained as described previously. Briefly, adult (>2 years old) female X. laevis frogs (NASCO) were anesthetized in a cooled solution of ethyl 3-amino benzoate methanesulfonate (0.1%, w/v), followed by a surgical removal of parts of the ovary. The ovary lobes were carefully dissected and small pieces of oocytes were incubated in Ca^2+-free ND96 buffer (96 mM NaCl, 2 mM KCl, 1 mM MgCl2 buffered with 5 mM HEPES/NaOH, pH 7.5) supplemented with collagenase D (0.1%, w/v; Roche), BSA (0.5%, w/v), and 9 mm Na2HPO4 at 18 °C for 14-16 h while gentle shaking. After incubation, the oocytes were carefully washed several times with ND96 buffer (96 mM NaCl, 2 mM KCl, 1.8 mM CaCl2, 1 mM MgCl2 buffered with 5 mM HEPES/NaOH, pH 7.5) supplemented with 100 mg l^−1 gentamycin). Defolliculated and healthy-looking stage V-VI oocytes were manually selected for RNA microinjection. The RNA was generated as following: The codon-optimized sequences of PfCRT variants were cloned into the pSP64T expression vector. After vector linearization using the restriction endonucleases BamHI or SalI (New England Biolabs), transcription was performed using the in vitro SP6 mMessage mMachine Kit (Ambion)[34]. The obtained RNA was kept at −80 °C and diluted with nuclease-free water to a concentration of 0.6 μg μl^−1. Precision-bore glass capillary tubes (3.5-inch glass capillaries; Drummond Scientific Co.) were pulled on a vertical puller (P-87 Flaming/Brown micropipette puller, Sutter Instrument Co.), graduated, and placed on a microinjector (Nanoject II Auto-Nanoliter Injector, Drummond Scientific Co.). 50 nl of nuclease-free water alone (control oocytes) or 50 nl of 0.6 μg μl^−1 RNA were injected under stereomicroscopic control. Injected oocytes were incubated for 46–72 h at 18 °C with twice-daily buffer changes before usage in experiments.
Drug uptake assays were performed as described previously[21],[22],[24],[34]. […] The direction of radio-labeled drug transport is here from the mostly acidic extracellular solution (pH 4.5 or 6.0, as indicated) into the oocyte cytosol (pH ∼ 7.2), which corresponds to the efflux of drug from the acidic digestive vacuole (pH 5.2) into the parasite cytoplasm (pH 7.2). The topology of PfCRT in the oolemma is such that both the N- and C-terminus face the extracellular milieu[3],[22]. In the parasite, the N- and C-terminus face the lumen of the digestive vacuole. […] For determination of the amount of drug uptake for each oocyte, the reaction medium was removed and the oocytes were washed three times with 2 ml of ice-cold ND96 buffer. Each oocyte was individually transferred to a scintillation vial containing 5% sodium dodecyl sulfate (200 μl) for lysis. […] Oocytes that were injected with water instead of RNA were analyzed in parallel, representing the uptake of a drug by diffusion and/or endogenous permeation pathways. The resulting value represents the “background“ level of drug accumulation in oocytes (in-depth discussion in[22]). The specific PfCRT-mediated uptake was determined by subtracting the corresponding background value measured in water-injected oocytes from that of PfCRT-expressing oocytes. In all cases, at least three separate experiments were performed on oocytes from different frogs (biological replicate), and for each condition in an experiment, measurements were made from 10 oocytes per treatment. For pH 5.5, 6.0, and 6.5, ND96 was buffered with 5 mM MES/Tris base.

PfCRT variant K80A = assay: CQ uptake assay, oocytes expressing K80A; format: cell-based, Plasmodium falciparum
Protocol: as §1, §2
Drug uptake assays were performed as described previously[21],[22],[24],[34]. […] The direction of radio-labeled drug transport is here from the mostly acidic extracellular solution (pH 4.5 or 6.0, as indicated) into the oocyte cytosol (pH ∼ 7.2), which corresponds to the efflux of drug from the acidic digestive vacuole (pH 5.2) into the parasite cytoplasm (pH 7.2). The topology of PfCRT in the oolemma is such that both the N- and C-terminus face the extracellular milieu[3],[22]. In the parasite, the N- and C-terminus face the lumen of the digestive vacuole. CQ uptake kinetics were performed by incubating oocytes in ND96 buffer adjusted to a pH of 4.5, 5.0, 5.5, or 6.0 and supplemented with 50 nM [^3H]CQ and one of 7 different CQ concentrations (10 µM, 50 µM, 100 µM, 200 µM, 300 µM, 400 µM, 500 µM CQ). The reaction was stopped at the 60 min time point, which is in the linear uptake range[22],[34] (Supplementary Fig. 17). For determination of the amount of drug uptake for each oocyte, the reaction medium was removed and the oocytes were washed three times with 2 ml of ice-cold ND96 buffer. Each oocyte was individually transferred to a scintillation vial containing 5% sodium dodecyl sulfate (200 μl) for lysis. The radioactivity of each sample was measured using a liquid scintillation analyzer Tri-Carb 4910 TR (PerkinElmer). Oocytes that were injected with water instead of RNA were analyzed in parallel, representing the uptake of a drug by diffusion and/or endogenous permeation pathways. The resulting value represents the “background“ level of drug accumulation in oocytes (in-depth discussion in[22]). […]

[1] = E207L, 50 µM CQ, 1 h, mean ± SEM
[2] = K80A, 50 µM CQ, 1 h, mean ± SEM

CCN(CC)CCCC(C)Nc1ccnc2cc(Cl)ccc12 (stereo not drawn) [CQ, chloroquine]
Activity at pH 4.5 (PfCRT variant E207L; [1]): 2.10 ± 0.17 pmol h-1 oocyte-1
Activity at pH 6.0 (PfCRT variant E207L; [1]): 2.25 ± 0.22 pmol h-1 oocyte-1
R-value (PfCRT variant E207L; E207L, CQ transport at pH 4.5 / pH 6.0): 0.95 ± 0.04
E207L transport activity pH 4.5 (PfCRT variant E207L; pH 4.5, individual replicates, Fig 6b): 2.14 pmol oocyte-1 h-1 and 2.36 pmol oocyte-1 h-1 and 2.37 pmol oocyte-1 h-1 and 1.53 pmol oocyte-1 h-1
E207L transport activity pH 6.0 (PfCRT variant E207L; pH 6.0, individual replicates, Fig 6b): 2.70 pmol oocyte-1 h-1 and 2.35 pmol oocyte-1 h-1 and 1.52 pmol oocyte-1 h-1
E207L R-value (PfCRT variant E207L; ratio of activity pH 4.5 / pH 6.0): 0.79 and 1.00 and 0.98 and 1.01
Activity at pH 4.5 (PfCRT variant K80A; [2]): 1.71 ± 0.08 pmol h-1 oocyte-1
Activity at pH 6.0 (PfCRT variant K80A; [2]): 2.26 ± 0.12 pmol h-1 oocyte-1
R-value (PfCRT variant K80A; K80A, CQ transport at pH 4.5 / pH 6.0): 0.76 ± 0.04
K80A transport activity pH 4.5 (PfCRT variant K80A; pH 4.5, individual replicates (Fig 6a)): 1.97 pmol oocyte-1 h-1 and 1.67 pmol oocyte-1 h-1 and 1.57 pmol oocyte-1 h-1 and 1.62 pmol oocyte-1 h-1
K80A transport activity pH 6.0 (PfCRT variant K80A; pH 6.0, individual replicates (Fig 6a)): 2.59 pmol oocyte-1 h-1 and 1.89 pmol oocyte-1 h-1 and 2.31 pmol oocyte-1 h-1 and 2.26 pmol oocyte-1 h-1
K80A R-value (PfCRT variant K80A; transport activity pH 4.5 relative to pH 6.0 (Fig 6a)): 0.76 and 0.88 and 0.68 and 0.72

From PMC10349806 (Nature Communications, 2023)
